Experimental data from US9302014B2, “Cell-penetrating peptides having a central hydrophobic domain” (Medical Research Council, priority 2011, dated 2016).
Like-named read-outs stand apart in the source and are kept apart here. Non-standard residues stand in square brackets, D forms with d. No end group written: not given here. Ahx = NCCCCCC(=O)O; βAla = NCCC(=O)O

Columns and labels:
[1] = mice; cited from earlier work
[2] = monkeys; cited from earlier work
dystrophin exon 23 = assay: Exon skipping in differentiated mouse H2K mdx myotubes (nested RT-PCR, densitometry); type: cell-based; conditions: no transfection agent
Procedure: The exon skipping potential of Pip6-PMO conjugates was evaluated in differentiated mouse H2K mdx myotubes in the absence of any transfection agent (FIG. 1) at concentrations ranging from 0.125 μM to 1 μM. […] In the case of Pip6 sequences, the flanking arginine-rich sequences are identical (with the exception of Pip6e, which is identical except for one arginine immediately preceding the core which is displaced into the second position of the core). […] Note that we have previously shown that major changes in in vitro exon skipping activities are correlated instead with the total numbers of arginine residues [Saleh, A. F., et al., Synthesis and splice-redirecting activity of branched, arginine-rich peptide dendrimer conjugates of peptide nucleic acid oligonucleotides. Bioconjug Chem, 2010. 21(10): p. 1902-11.].
H2K mdx myotubes are derived from H2K mdx myoblasts obtained from the EDL muscle of a male H2K mdx f2 mouse. The cells are dystrophin deficient and conditionally immortal due to thermolabile simian virus 40 large tumor antigen (tsA58) expression. The myoblasts proliferate at 33° C. (10% CO2) in rich culture and differentiate into myotubes at 37° C. in media with horse serum.
H2K mdx myotubes were prepared and incubated with peptide-PNA and peptide-PMO conjugates in the absence of any transfection agent by the methods described previously (Wang, Q, Yin, H, et aL (2010) In vitro evaluation of novel antisense oligonucleotides is predictive of in vivo exon skipping activity for Duchenne muscular dystrophy) but with minor variations.
Myotubes were obtained from confluent H2K mdx cells seeded in gelatine coated 24-well plates following 2 days of serum deprivation (DMEM with 5% horse serum). The conjugates were incubated with myotubes for 4 h in 0.5 mL OptiMEM and then replaced by 1 mL of DMEM/5% horse serum media for further incubation. After 20 h myotubes were washed twice with PBS and total RNA was extracted with 0.5 mL of TRI Reagent (Sigma, UK). RNA preparations were treated with RNAse free DNAse (2U) and Proteinase K ([…]) prior to RT-PCR analysis. RT-PCR was carried out in 25 μL with 1 μg RNA template using SuperScript III One-Step RTPCR System with Platinum Taq DNA polymerase (Invitrogen) primed by forward primer 5′CAG AAT TCT GCC AAT TGC TGAG3′ [SEQ ID NO:312] and reverse primer 5′TTC TTC AGC TTG TGT CAT CC3′ [SEQ ID NO:313]. The initial cDNA synthesis was performed at 55° C. for 30 min followed by 30 cycles of 95° C. for 30 sec, 55° C. for 1 min and 68° C. for 80 sec. RT PCR product ([…]) was then used as the template for secondary PCR performed in 25 μL with 0.5 U Super TAQ polymerase (HT Biotechnologies) and primed by forward primer 5′CCCAGTCTACCACCCTATCAG AGC3′ [SEQ ID NO:314] and reverse primer 5′CCT GCC TTT AAG GCT TCC TT3′ [SEQ ID NO:315]. The cycling conditions were 95° C. for 1 min, 57° C. for 1 min and 72° C. for 80 sec for 25 cycles. Products were examined by 2% agarose gel and after scanning using Gene Tools Analysis Software (SynGene) the relative amount of exon 23 skipping was expressed as a percentage at a given concentration of conjugates averaged over duplicates of three experiments.
H2K mdx myotubes were prepared and incubated with peptide-PMO conjugates in the absence of any transfection agent at concentrations of 0.125, 0.25, 0.5 and 1.0 μM by the method described previously [Yin, H., et al., Pip5 transduction peptides direct high efficiency oligonucleotide-mediated dystrophin exon skipping in heart and phenotypic correction in mdx mice. Mol Ther, 2011. 19(7): p. 1295-303.]. The products of nested RT-PCR from total isolated RNA were examined by electrophoresis on a 2% agarose gel. Quantification of Δ23 transcript levels was calculated using densitometry. […]

dystrophin [3] = assay: Immunohistochemical staining and quantification of dystrophin in mdx mice after single IV injection; type: in vivo; conditions: 8 week old mdx mice, single 12.5 mg/kg IV, 2 weeks after injection
Text: Given the potency of Pip5e-PMO in heart tissue, the aim of altering the sequence of the hydrophobic core (whilst maintaining the 5-aa length) was to identify peptides that might be more efficient at lower doses. These modifications included inversion of the hydrophobic region (Pip6a), substitution of tyrosine by isoleucine (Pip6b), substitution of glutamine in the Pip6a sequence by displacement of the arginine immediately flanking the core in the first arginine-rich flanking region (Pip6e), and a scrambled hydrophobic core sequence (Pip6f). All Pip6 peptide-PMO conjugates were administered to mdx mice as single 12.5 mg/kg intravenous injections via the tail vein and tissues were harvested 2 weeks later and assessed for activity at both RNA and protein levels.
Immunohistochemical staining quantification (FIGS. 34a, b) was performed as previously described [Malerba, A., et al., Chronic systemic therapy with low-dose morpholino oligomers ameliorates the pathology and normalizes locomotor behavior in mdx mice. Mol Ther, 2011. 19(2): p. 345-54; Arechavala-Gomeza, V., et al., Immunohistological intensity measurements as a tool to assess sarcolemma-associated protein expression. Neuropathol Appl Neurobiol, 2010. 36(4): p. 265-74.] and was achieved by taking 4 representative frames of the dystrophin staining and correlating this with laminin staining for each section (n=3) of the quadriceps, diaphragm and heart for each peptide-PMO treatment. Untreated mdx and treated mdx mice were normalised to C57BL10 mice. This method allows comparison of the staining intensity of dystrophin at the sarcolemma relative to laminin for each treatment group. Intensity ratios are normalised to C57BL10 samples and each region of interest at the sarcolemma (120 regions for each treatment group) is plotted on a scatter graph. […]
Transverse sections of tissue samples were cut (8 μm thick) for the examination of dystrophin expression. For dystrophin visualisation and quantification, sections were co-stained with rabbit-anti-dystrophin (Abcam) and rat anti-laminin (Sigma), and detected by goat-anti-rabbit IgG Alexa 594 and goat-anti-rat IgG 488 secondary antibodies respectively (Invitrogen). […] Quantitative immunohistochemistry was performed as previously described [Malerba, A., et al., Chronic systemic therapy with low-dose morpholino oligomers ameliorates the pathology and normalizes locomotor behavior in mdx mice. […] For quantification, 4 representative frames of the dystrophin and correlating laminin were taken for each section (n=3) of the quadriceps, diaphragm and heart for each treatment. […] The minimum and maximum fluorescence intensity for 120 regions were recorded for each treatment. […]

dystrophin [4] = conditions: intramuscular or intravenous delivery in mdx mice; cited from earlier work
[5] = Example 5, conjugate 0.125 to 2.0 μM

For “Exon-skipping PMO: phosphorodiamidate morpholino oligonucleotide for exon skipping, unconjugated, from cited toxicology studies (GGCCAAACCTCGGCTTACCTGAAAT; all phosphorodiamidate morpholino (PMO))”, the well tolerated dosage [1] is listed as at most 960 mg/kg and the well tolerated dosage [2] is listed as at most 320 mg/kg.
In the case of “Pip7d: Pip7 series peptide (SEQ ID NOs:11-16) conjugated to PMODMD (R[Ahx]R[βAla][Ahx]YRFLI[Ahx]R[βAla]R[Ahx]R[βAla]; also: conjugated to PMO (PMODMD), site not given here)”, the “exon skipping activity (Δ23 skipping) in mdx muscle cells” value (from here on “exon skipping activity (Δ23 skipping)”) (dystrophin exon 23; conjugate 0.125 to 1 μM) is reported as “moderate exon skipping”.
In the case of “Pip8a: Pip8 series peptide (SEQ ID NOs:17-20, parent Pip 6a; 9 Arg) conjugated to PMODMD (R[Ahx]RR[βAla]R[Ahx]RYQFLIR[Ahx]RR[βAla]R[βAla]; also: conjugated to PMO (PMODMD))”, the “exon skipping activity (Δ23 skipping)” value (dystrophin exon 23; [5]) is reported as “high exon skipping activity” and the “exon skipping activity (Δ23 skipping)” value (dystrophin exon 23; conjugate 0.125 to 1 μM) is reported as “high exon skipping activity”.
For “Pip8c2: Pip8 series peptide (SEQ ID NOs:17-20) conjugated to PMODMD (R[Ahx]RR[βAla]RYQFLIRR[βAla]R[βAla]; also: conjugated to PMO (PMODMD))”, the “exon skipping activity (Δ23 skipping)” value (dystrophin exon 23; [5]) was “high exon skipping activity” and the “dystrophin expression in the heart” value (dystrophin [3]) was “negligible dystrophin production”.
With “Pip8d: Pip8 series peptide (SEQ ID NOs:317-319) conjugated to PMODMD (R[Ahx]RR[βAla]RYQFLI[βAla]R[Ahx]R[βAla]; also: conjugated to PMO (PMODMD))” the “exon skipping activity (Δ23 skipping)” value (dystrophin exon 23; [5]) was “high exon skipping activity”.
With “Pip9c2: Pip9 series peptide (SEQ ID Nos 320-328) conjugated to PMODMD (R[Ahx]RR[βAla]RRFQILY[βAla]R[Ahx]R[βAla]; also: conjugated to PMO (PMODMD))” the “exon skipping activity (Δ23 skipping)” value (dystrophin exon 23; [5]) was “high exon skipping activity”.
In the case of “Pip9c3: Pip9 series peptide (SEQ ID Nos 320-328) conjugated to PMODMD (R[Ahx]RR[βAla]RFQILYRR[βAla]R[βAla]; also: conjugated to PMO (PMODMD))”, the “exon skipping activity (Δ23 skipping)” value (dystrophin exon 23; [5]) is reported as “high exon skipping activity”.
In the case of “Pip9d: Pip9 series peptide (SEQ ID Nos 320-328) conjugated to PMODMD (R[Ahx]RR[βAla]RFQILY[βAla]R[βAla]R[βAla]; also: conjugated to PMO (PMODMD))”, the “exon skipping activity (Δ23 skipping)” value (dystrophin exon 23; [5]) is reported as “high exon skipping activity” and the “dystrophin expression in the heart” value (dystrophin [3]) is reported as “negligible dystrophin production”.
In the case of “RXRRBRRXRRBRXB (R[Ahx]RR[βAla]RR[Ahx]RR[βAla]R[Ahx][βAla]; also: conjugated to PMO (PMODMD)) [B peptide]”, the “exon skipping and dystrophin production compared to naked PMODMD” value (dystrophin [4]) is listed as “significantly enhance exon skipping and dystrophin production”.
